Experimental data as given in US11840686B2, “Modulation of prekallikrein (PKK) expression” (Ionis Pharmaceuticals, Inc., priority 2013, dated 2023).
Strand notation (5' to 3'): a small letter for the sugar, then the base; units joined by * are phosphorothioate-linked, units joined directly phosphodiester-linked; [ ] holds rarer units or linkages, { } end groups; capitals alone tell only the bases. e = 2'-O-(2-methoxyethyl) (MOE); [5mC] = 5-methylcytosine; d = 2'-deoxy (DNA)

What was measured:
[1] = tested on: thrombus formation (platelet factor-4 mRNA); assay: FeCl3-induced inferior vena cava thrombosis model, PF-4 quantification (Example 19); type: in vivo, mouse; details: BALB/c mice; for PF-4 (percentage compared to PBS controls): FeCl3 vena cava
Method: Three groups of 8 male BALB/c mice were treated with 10 mg/kg, 20 mg/kg, or 40 mg/kg of ISIS 482584, administered subcutaneously twice a week for 3 weeks (weekly doses of 20 mg/kg, 40 mg/kg, or 80 mg/kg). Two control groups of 12 BALB/c mice each were treated with PBS, administered subcutaneously twice a week for 3 weeks. Two days after the last dose of antisense oligonucleotide or PBS, mice from all groups were anesthetized with 150 mg/kg ketamine mixed with 10 mg/kg xylazine, administered by intraperitoneal injection. Thrombus formation was induced with FeCl3 in all groups of anesthetized mice except the first control group.
In mice undergoing FeCl3 treatment, thrombus formation was induced by applying a piece of filter paper (2×4 mm) pre-saturated with 10% FeCl3 solution directly on the vena cava. After 3 minutes of exposure, the filter paper was removed. Thirty minutes after the filter paper application, a fixed length of the vein containing the thrombus was dissected out for platelet analysis. Liver was collected for RNA analysis.
Real-time PCR quantification of platelet factor-4 (PF-4) was used to quantify platelets in the vena cava as a measure of thrombus formation. PF-4 mRNA levels were measured using the murine primer probe set mPF4_LTS_00086 (forward sequence […], designated herein as SEQ ID NO: 2240; reverse sequence CGCAGCGACGCTCATG, designated herein as SEQ ID NO: 2241; probe sequence […], designated herein as SEQ ID NO: 2242). Results are presented as a percentage of PF-4 in ISIS oligonucleotide-treated mice, as compared to the two PBS-treated control groups. […] Therefore, reduction of PKK by the compound provided herein is useful for inhibiting thrombus formation.

vascular leakage = assay: Vascular leakage, plasma Evans Blue OD620, basal model (Example 14); type: in vivo, mouse
Method: Groups 3, 4, 5, 6, 7, and 8 consisted of 8 mice each and were treated with 2.5 mg/kg, 5 mg/kg, 10 mg/kg, 20 mg/kg, 40 mg/kg, or 80 mg/kg (corresponding to 5 mg/kg, 10 mg/kg, 20 mg/kg, 40 mg/kg, 80 mg/kg, or 160 mg/kg per week), respectively of ISIS 482584 administered subcutaneously twice a week for 3 weeks. […] served as the experimental treatment groups for examining the effect of varying doses of ISIS 482584 on basal vascular permeability.
All the groups were then injected with 30 mg/kg of Evans Blue solution in the tail vein. The mice were sacrificed 30 min after the Evans Blue solution administration and colons, feet, and ears were harvested and examined for permeability defects. Blood samples were taken through cardiac puncture.
The blood drawn through cardiac puncture was immediately mixed with 3 times the volume of ice-cold ethanol. The solution was centrifuged at 15,000 g for 20 minutes at 4° C. to remove cell debris and precipitated plasma proteins. The ethanol extracts were further purified by ultra-filtration through a 10 kDa MWCO filter. The color intensity of the ethanol extracted plasma solution was then measured at OD620 nm. The results are presented in Table 70 as percentage increase or decrease of the OD values of the Group 1 PBS control. It was expected that treatment groups may display higher OD values due to reduced vascular leakage.

murine PKK mRNA = assay: PKK mRNA in BALB/c mice liver (Example 10); type: in vivo, mouse; details: for % inhibition of PKK mRNA in BALB/c mice liver: twice a week for 3 weeks, relative to PBS control
Method: ISIS 482584 was tested for its effect on murine PKK mRNA in vivo.
Six groups of male BALB/c mice each were treated with 2.5 mg/kg, 5.0 mg/kg, 10.0 mg/kg, 20.0 mg/kg, 40.0 mg/kg, or 80.0 mg/kg of ISIS 482584, administered subcutaneously twice a week for 3 weeks (weekly doses of 5.0 mg/kg, 10.0 mg/kg, 20.0 mg/kg, 40.0 mg/kg, 80.0 mg/kg, or 160.0 mg/kg). A control group of BALB/c mice was treated with PBS, administered subcutaneously twice a week for 3 weeks. Two days after the last dose of antisense oligonucleotide or PBS, mice from all groups were anesthetized with 150 mg/kg ketamine mixed with 10 mg/kg xylazine, administered by intraperitoneal injection. Liver was collected for RNA analysis.
RNA was extracted from liver tissue for real-time PCR analysis of PKK. PKK mRNA levels were measured using the murine primer probe set (forward sequence […], designated herein as SEQ ID NO: 2231; reverse sequence […], designated herein as SEQ ID NO: 2232; probe sequence […], designated herein as SEQ ID NO: 2233). Results are presented as percent inhibition of PKK, relative to PBS control.

[2] = Urine protein/creatinine ratio in cynomolgus monkeys (Example 8); details: cynomolgus monkey, 40 mg/kg sc
Method: Prior to the study, the monkeys were kept in quarantine for a 30-day period, during which the animals were observed daily for general health. The monkeys were 2-4 years old and weighed between 2 and 4 kg. Ten groups of four randomly assigned male cynomolgus monkeys each were injected subcutaneously with ISIS oligonucleotide or PBS. PBS solution or ISIS oligonucleotides at a dose of 40 mg/kg were administered initially with a loading regimen consisting of four doses on the first week of the study (days 1, 3, 5, and 7), followed by a maintenance regimen consisting of once weekly administration starting on Day 14 (weeks 2 to 13). Subcutaneous injections were performed in clock-wise rotations at 4 sites on the back; one site per dose. The injection sites were delineated by tattoo, while sedated using ketamine, and were separated by a minimum of 3 cm.
Kidney function was also assessed by urinalysis. Fresh urine from all animals was collected using a clean cage pan on wet ice. Food was removed overnight the day before fresh urine collection was done but water was supplied. The total protein and creatinine levels were measured using a Toshiba 120FR NEO automated chemistry analyzer (Toshiba Co., Japan) and the protein to creatinine ratio was calculated.

PKK protein = PKK protein in cynomolgus monkey plasma by ELISA (Example 8); type: in vivo; details: 40 mg/kg sc
Method: Approximately 0.9 mL of blood was collected each time from all available animals at pre-dose, day 17, day 31, day 45, day 59, and day 73, and placed in tubes containing 3.2% sodium citrate. The tubes were centrifuged (3000 rpm for 10 min at room temperature) to obtain plasma. PKK protein levels were measured in the plasma by ELISA. The results are presented in Table 52, expressed as percentage inhibition compared to the PBS control levels.

## ISIS 482584: 5-10-5 MOE gapmer targeting murine PKK, GGCATATTGGTTTTTGGAAT; SEQ ID NO: 2244 (antisense eG*eG*e[5mC]*eA*eT*dA*dT*dT*dG*dG*dT*dT*dT*dT*dT*eG*eG*eA*eA*eT)
[1]; 20 mg/kg/wk sc 3 weeks
  PF-4 (percentage compared to PBS controls): 62%
[1]; 40 mg/kg/wk sc 3 weeks
  PF-4 (percentage compared to PBS controls): 34%
[1]; 80 mg/kg/wk sc 3 weeks
  PF-4 (percentage compared to PBS controls): 25%
[1]; 10-40 mg/kg s.c. twice a week for 3 weeks, vs PBS control
  PF-4 in vena cava: significant reduction of PF-4
Vascular leakage; 10 mg/kg/week
  Percentage of OD620 nm of Evans Blue dye compared to the PBS basal control, Plasma: 36%
Vascular leakage; 20 mg/kg/week
  Percentage of OD620 nm of Evans Blue dye compared to the PBS basal control, Plasma: 56%
Vascular leakage; 40 mg/kg/week
  Percentage of OD620 nm of Evans Blue dye compared to the PBS basal control, Plasma: 83%
Vascular leakage; 80 mg/kg/week
  Percentage of OD620 nm of Evans Blue dye compared to the PBS basal control, Plasma: 93%
Vascular leakage; 160 mg/kg/week
  Percentage of OD620 nm of Evans Blue dye compared to the PBS basal control, Plasma: 95%
Murine PKK mRNA; 5 mg/kg/wk sc
  % inhibition of PKK mRNA in BALB/c mice liver: 3%
Murine PKK mRNA; 10 mg/kg/wk sc
  % inhibition of PKK mRNA in BALB/c mice liver: 42%
Murine PKK mRNA; 20 mg/kg/wk sc
  % inhibition of PKK mRNA in BALB/c mice liver: 68%
Murine PKK mRNA; 40 mg/kg/wk sc
  % inhibition of PKK mRNA in BALB/c mice liver: 85%
Murine PKK mRNA; 80 mg/kg/wk sc
  % inhibition of PKK mRNA in BALB/c mice liver: 91%
Murine PKK mRNA; 160 mg/kg/wk sc
  % inhibition of PKK mRNA in BALB/c mice liver: 94%
Murine PKK mRNA; BALB/c mice, 2.5-80.0 mg/kg s.c. twice a week for 3 weeks, vs PBS
  reduction of PKK mRNA in liver: significant dose-dependent reduction of PKK mRNA

## Tes Ges mCes Aes Aes Gds Tds mCds Tds mCds Tds Tds Gds Gds mCds Aes Aes Aes mCes Ae [ISIS 546254]
[2]
  Urine protein/creatinine ratio: 0.04
PKK protein; Day 17
  PKK protein level reduction (%) in plasma relative to control levels: 38%
PKK protein; Day 31
  PKK protein level reduction (%) in plasma relative to control levels: 51%
PKK protein; Day 45
  PKK protein level reduction (%) in plasma relative to control levels: 63%
PKK protein; Day 59
  PKK protein level reduction (%) in plasma relative to control levels: 74%
PKK protein; Day 73
  PKK protein level reduction (%) in plasma relative to control levels: 73%
